Peptide text beside a SMILES is read from it.
Tests used:
primary macrophages = experiment: Primary macrophage migration in DUNN chamber; format: cell-based, human; details: 10 nM peptide added to 10 nM fMLF gradient, 6 hours
Procedure: The ability of [SRSRY] peptide to affect THP-1 cell migration was analyzed in Boyden chambers using 10 nM fMLF or 10 nM SRSRY as chemoattractants. […] Inhibitory effect of [SRSRY] is dose-dependent, it starts in the high fM range, it seems to level off in the μM range and reaches an overall 50% reduction at 10 pM (Fig 4B). […] The mechanisms by which monocytes move when subjected to a chemoattractant gradient, involve changes in cytoskeletal organization, which provide both protrusive and contractile forces necessary for cell migration. […] A total of 100 cells/sample that translocated to the area corresponding to the ring separating the inner and outer chambers were counted and their cytoskeletal organization examined with a fluorescence-inverted microscope. […] After 6 hours incubation, a total of 100 cells/sample that translocated to the area corresponding to the ring separating the inner and outer chambers were counted. […] Data are expressed as the means ± SD of three independent experiments, performed in duplicate. *Statistical significance against None with p<0.001. […] The extent of cell migration was expressed as a percentage of the net fMLF-dependent cell migration, considered as 100%. Data are expressed as the means ± SD of three independent experiments, performed in duplicate. […]

[1] = system: PMA-differentiated THP-1 cells; format: cell-based, human; details: 3 h
Procedure: (§1) The ability of [SRSRY] peptide to affect THP-1 cell migration was analyzed in Boyden chambers using 10 nM fMLF or 10 nM SRSRY as chemoattractants. […] Inhibitory effect of [SRSRY] is dose-dependent, it starts in the high fM range, it seems to level off in the μM range and reaches an overall 50% reduction at 10 pM (Fig 4B). […] The mechanisms by which monocytes move when subjected to a chemoattractant gradient, involve changes in cytoskeletal organization, which provide both protrusive and contractile forces necessary for cell migration. To gain some insights into the cellular effects exerted by peptide [SRSRY], PMA-differentiated THP-1 cells were grown adherent onto a glass slide, exposed to diluents (CTL), 10 nM fMLF gradient plus/minus 10 nM [SRSRY] or 10 nM [RSSYR] in a DUNN chamber for 6 hours as described, and then stained with rhodamine-phalloidin. A total of 100 cells/sample that translocated to the area corresponding to the ring separating the inner and outer chambers were counted and their cytoskeletal organization examined with a fluorescence-inverted microscope. […] Conversely, the addition of peptide [SRSRY] to the fMLF gradient reduced cell elongation and alignment with the appearance of F-actin linear distribution along the plasma membranes in the 60% of cell population (Fig 4C). In order to verify whether the inhibitory effect of [SRSRY] also occurs on primary monocytes and/or macrophages, human monocytes and macrophages were subjected to cell migration assays in Boyden and DUNN chambers, respectively. […] Unlike [RSSYR], 10 nM [SRSRY] reduced both fMLF- and SRSRY- directed monocyte migration by 50% and 49%, respectively. Next, primary macrophages were subjected to cell migration assay in DUNN chamber as above described. After 6 hours incubation, a total of 100 cells/sample that translocated to the area corresponding to the ring separating the inner and outer chambers were counted. Macrophage exposure to 10 nM fMLF elicited a considerable cell migration, reaching 230% of the basal cell migration (CTL), that was unchanged by 10 nM [[…]). […] These findings indicate that unlike linear SRSRY, the cyclic form of the chemotactic sequence of uPAR inhibits monocyte motility and prevents cytoskeletal re-organization occurring during migration of macrophages. {[…]] inhibits migration of monocytes and macrophages in a dose-dependent manner causing a marked inhibition of fMLF-dependent cytoskeletal re-organization. A. THP-1 cells (1x10^5 cells/well) were allowed to migrate for 90 minutes at 37°C, 5% CO2 in Boyden chambers toward 10 nM fMLF, or 10 nM SRSRY in the presence of diluents (None), 10 nM [RSSYR] or 10 nM [SRSRY]. […] Data are expressed as the means ± SD of three independent experiments, performed in duplicate. *Statistical significance against None with p<0.001. B. THP-1 and PMA-stimulated THP-1 cell migration toward 10 nM fMLF plus increasing concentrations of [SRSRY] in Boyden chambers. The extent of cell migration was expressed as a percentage of the net fMLF-dependent cell migration, considered as 100%. Data are expressed as the means ± SD of three independent experiments, performed in duplicate. C. Representative images of PMA-stimulated THP-1 cells allowed to migrate in a DUNN chamber toward diluents (CTL), or a fMLF chemotactic gradient, in the absence (None) or presence of 10 nM [SRSRY] or [RSSYR] peptides and stained with rhodamine-phalloidin. Scale bar: 10 μm. Original magnifications: 630x. D-E. Primary monocytes (1x10^5 cells/well) were allowed to migrate for 90 minutes at 37°C, 5% CO2 in Boyden chambers toward 10 nM fMLF (D), or 10 nM […]) in the presence of diluents (None), 10 nM [RSSYR] or 10 nM [SRSRY]. […] Data are expressed as the means ± SD of three independent experiments, performed in duplicate. *Statistical significance against None with p<0.001; **Statistical significance against None with p<0.0001. […]

THP-1 cells = format: cell-based, human
Procedure: as §1

RBL-2H3/ETFR cells = experiment: RBL-2H3/ETFR cell proliferation, xCELLigence; format: cell-based, rat; details: 10 μM peptide, up to 90 hours, medium replaced every 24 hours, quadruplicate
[2] = 10 nM peptide, 90 minutes, Boyden chamber

IC50 [1]: 0.01 nM
IC50 (THP-1 cells; 6 h): 0.01 nM
Compound: N=C(N)NCCC[C@@H]1NC(=O)[C@H](CO)NC(=O)[C@H](Cc2ccc(O)cc2)NC(=O)[C@H](CCCNC(=N)N)NC(=O)[C@H](CO)NC1=O [[SRSRY], [Ser-Arg-Ser-Arg-Tyr]] (cyclo(RSRYS))
effect on fMLF-directed migration of primary macrophages (primary macrophages): reduced migration of primary macrophages to the basal level
reduction of THP-1 monocyte migration toward 10 nM SRSRY (THP-1 cells; [2]): 68%
reduction of THP-1 monocyte migration toward 10 nM fMLF (THP-1 cells; [2]): 58%
RBL-2H3/ETFR cell growth (RBL-2H3/ETFR cells): did not modify cell growth up to 90 hours

— paper PMC4418665, “Cyclization of the Urokinase Receptor-Derived Ser-Arg-Ser-Arg-Tyr Peptide Generates a Potent Inhibitor of Trans-Endothelial Migration of Monocytes” (PLoS ONE, 2015)
